Counter-ions that a name gives are not always drawn. Calls of active or inactive are those of the source.
Experiments:
[1] = target: T1, RNA-binding protein pos-1 (Caenorhabditis elegans, UniProt G5EF15); test: disruptors of C. elegans POS-1 RNA interaction – biochemical, fluorescence polarization, dose response (AID 1964);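 also: purified POS-1 fused to maltose binding protein made in E. coli; potency of compounds blocking POS-1 binding to fluorescent RNA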
T1 sequence (G5EF15 whole entry): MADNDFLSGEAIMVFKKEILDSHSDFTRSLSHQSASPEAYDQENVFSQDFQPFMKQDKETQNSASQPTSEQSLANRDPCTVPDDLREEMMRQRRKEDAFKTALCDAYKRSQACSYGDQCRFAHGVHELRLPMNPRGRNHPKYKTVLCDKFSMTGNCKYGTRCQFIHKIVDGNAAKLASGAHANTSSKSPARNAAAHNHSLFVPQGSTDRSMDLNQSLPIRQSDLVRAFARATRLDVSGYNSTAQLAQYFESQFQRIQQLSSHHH

[2] = target: T2, Zinc finger protein mex-5 (Caenorhabditis elegans, UniProt Q9XUB2); test: potency of MEX-5 RNA-binding blockers – biochemical, C. elegans, fluorescence polarization, dose response (AID 1960)
T2 sequence (Q9XUB2 whole entry): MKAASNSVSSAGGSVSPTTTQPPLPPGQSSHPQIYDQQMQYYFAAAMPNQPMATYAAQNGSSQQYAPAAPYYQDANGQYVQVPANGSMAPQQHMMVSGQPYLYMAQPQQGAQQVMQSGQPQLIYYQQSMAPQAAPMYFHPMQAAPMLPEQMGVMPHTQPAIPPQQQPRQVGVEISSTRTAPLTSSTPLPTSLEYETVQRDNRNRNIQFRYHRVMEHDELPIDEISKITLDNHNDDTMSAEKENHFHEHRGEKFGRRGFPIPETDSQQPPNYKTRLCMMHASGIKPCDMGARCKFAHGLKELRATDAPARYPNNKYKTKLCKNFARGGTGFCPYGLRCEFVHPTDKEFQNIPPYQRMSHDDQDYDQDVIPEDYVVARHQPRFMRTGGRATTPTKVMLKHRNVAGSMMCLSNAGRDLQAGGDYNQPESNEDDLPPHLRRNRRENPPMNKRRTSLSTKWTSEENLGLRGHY

[3] = target: T3, Endoribonuclease toxin MazF (Escherichia coli K-12, UniProt P0AE70); test: substrate-only fluorescence increase artefacts – biochemical, single-stranded RNase substrate, counter-screen for MazEF activator project, dose response (AID 588502); type: functional
T3 sequence (P0AE70 whole entry): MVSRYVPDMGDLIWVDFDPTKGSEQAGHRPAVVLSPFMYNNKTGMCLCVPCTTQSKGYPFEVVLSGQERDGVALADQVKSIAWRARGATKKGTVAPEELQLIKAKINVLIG

[4] = target: T3, Endoribonuclease toxin MazF; test: activation of MazEF endoribonuclease cleavage – biochemical, fluorescence, single-stranded RNA substrate, uHTS hits, dose response (AID 588481); type: functional
[5] = target: 72 kDa type IV collagenase (Homo sapiens, UniProt P08253); test: Dose Response validation of uHTS RPN11 inhibitor hits using a MMP-2 Fluorescence assay.; type: functional
Chain of 72 kDa type IV collagenase (P08253 whole entry): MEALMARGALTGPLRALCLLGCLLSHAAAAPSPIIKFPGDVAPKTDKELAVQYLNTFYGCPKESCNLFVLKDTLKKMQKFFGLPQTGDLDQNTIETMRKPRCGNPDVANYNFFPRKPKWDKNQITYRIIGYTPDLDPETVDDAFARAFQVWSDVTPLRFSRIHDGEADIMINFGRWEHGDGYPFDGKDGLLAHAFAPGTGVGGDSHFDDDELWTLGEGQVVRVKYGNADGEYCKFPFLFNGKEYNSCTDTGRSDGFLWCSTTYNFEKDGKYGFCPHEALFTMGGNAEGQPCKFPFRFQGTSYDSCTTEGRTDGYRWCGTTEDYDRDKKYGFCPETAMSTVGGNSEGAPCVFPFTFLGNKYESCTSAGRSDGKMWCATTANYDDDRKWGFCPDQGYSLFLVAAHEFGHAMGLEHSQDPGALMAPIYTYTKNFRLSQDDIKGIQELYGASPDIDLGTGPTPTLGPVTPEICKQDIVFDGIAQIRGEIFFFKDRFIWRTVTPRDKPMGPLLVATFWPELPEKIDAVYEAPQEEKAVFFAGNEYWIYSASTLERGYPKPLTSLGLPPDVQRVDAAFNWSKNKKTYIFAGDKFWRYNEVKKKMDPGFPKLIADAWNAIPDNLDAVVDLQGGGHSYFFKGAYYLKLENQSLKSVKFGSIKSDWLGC

HEK293 = test: EBV LMP1 TES2 canonical NF-kB signalling blockers – cell-based, HEK293, luciferase, cherry-pick, dose response (AID 588343); type: functional; settings: Homo sapiens
[6] = target: T4, Nuclear receptor subfamily 0 group B member 1 (Homo sapiens, UniProt P51843); type: functional, cell-based;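 also: HEK293T cells transfected with SF-1 and DAX-1 plus StAR promoter luciferase reporter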
T4 sequence (P51843 whole entry): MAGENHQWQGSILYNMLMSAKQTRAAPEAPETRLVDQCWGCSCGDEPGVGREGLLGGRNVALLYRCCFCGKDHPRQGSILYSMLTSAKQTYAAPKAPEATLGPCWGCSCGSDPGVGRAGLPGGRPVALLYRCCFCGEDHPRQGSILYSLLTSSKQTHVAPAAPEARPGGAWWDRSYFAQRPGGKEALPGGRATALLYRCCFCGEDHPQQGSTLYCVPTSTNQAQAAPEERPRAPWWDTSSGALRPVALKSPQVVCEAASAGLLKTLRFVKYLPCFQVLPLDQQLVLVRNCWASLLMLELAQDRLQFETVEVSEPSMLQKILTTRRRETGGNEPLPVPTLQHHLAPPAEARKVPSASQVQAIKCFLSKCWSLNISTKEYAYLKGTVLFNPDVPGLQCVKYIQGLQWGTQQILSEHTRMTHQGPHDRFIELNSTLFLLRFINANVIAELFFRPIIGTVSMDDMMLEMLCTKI

Prothrombin = Prothrombin (Bos taurus, UniProt P00735); test: thrombin protease inhibitors – biochemical, fluorescence polarization, uHTS hits, dose response (AID 602369); type: functional
cells = type: functional, cell-based
[7] = target: 26S proteasome non-ATPase regulatory subunit 14 (Homo sapiens, UniProt O00487); test: inhibition of proteasome subunit RPN11 – biochemical, fluorescence polarization, uHTS hits, confirmation (AID 602368); type: functional
Chain of 26S proteasome non-ATPase regulatory subunit 14 (O00487 whole entry): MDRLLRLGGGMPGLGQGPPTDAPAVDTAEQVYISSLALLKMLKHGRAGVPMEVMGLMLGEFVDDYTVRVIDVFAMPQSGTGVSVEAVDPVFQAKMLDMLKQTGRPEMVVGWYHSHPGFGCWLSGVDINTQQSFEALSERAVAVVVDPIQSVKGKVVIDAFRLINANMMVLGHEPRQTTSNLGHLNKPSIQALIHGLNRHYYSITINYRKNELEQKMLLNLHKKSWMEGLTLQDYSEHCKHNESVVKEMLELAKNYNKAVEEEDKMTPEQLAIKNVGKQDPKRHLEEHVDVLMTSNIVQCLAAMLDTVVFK

Melanocortin receptor 4 = Melanocortin receptor 4 (Homo sapiens, UniProt P32245); type: functional, cell-based;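 also: Cell-based assay with luminescence read-out, confirmatory dose-response testing for agonist activity of biased ligands at MC4R; human U2OS cells with tagged receptor and beta-arrestin; potency of agonists that increase receptor coupling to beta-arrestin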
Chain of Melanocortin receptor 4 (P32245 whole entry): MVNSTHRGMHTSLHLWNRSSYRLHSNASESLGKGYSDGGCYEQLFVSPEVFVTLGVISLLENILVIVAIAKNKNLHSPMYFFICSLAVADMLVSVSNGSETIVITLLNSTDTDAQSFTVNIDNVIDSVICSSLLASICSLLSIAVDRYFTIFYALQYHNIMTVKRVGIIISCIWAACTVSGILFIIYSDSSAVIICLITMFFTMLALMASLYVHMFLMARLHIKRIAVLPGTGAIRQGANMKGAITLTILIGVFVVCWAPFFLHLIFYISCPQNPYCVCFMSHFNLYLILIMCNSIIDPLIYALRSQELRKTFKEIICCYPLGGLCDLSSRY

INS1 = test: INS-1E survival protection against cytokine death – cell-based, luminescence, retest, dose response (AID 449756); type: functional; settings: Rattus norvegicus;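 also: cell death triggered by IL-1 beta plus TNF-alpha plus IFN-gamma mixture; protective hits raise ATP signal compared with cytokine alone wells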
[8] = viability of HCT116 lacking mutant beta-catenin – cell-based, human colon tumor, dose response (AID 1045); type: functional;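 also: HCT116 colon tumor cells with beta catenin knocked out; cells exposed to compound for 60 hours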
[9] = Luminescence Cell-Based Dose Confirmation HTS to Identify Inhibitors of Platelet Dense Granule Release. [Related pubchem assays: 1663 (Primary HTS), 1678 (Summary of Project)]; type: functional
[10] = target: Luciferin 4-monooxygenase (Photinus pyralis, UniProt P08659); test: inhibition of purified Photinus pyralis luciferase – biochemical, luminescence, dose response (AID 1891)
Chain of Luciferin 4-monooxygenase (P08659 whole entry): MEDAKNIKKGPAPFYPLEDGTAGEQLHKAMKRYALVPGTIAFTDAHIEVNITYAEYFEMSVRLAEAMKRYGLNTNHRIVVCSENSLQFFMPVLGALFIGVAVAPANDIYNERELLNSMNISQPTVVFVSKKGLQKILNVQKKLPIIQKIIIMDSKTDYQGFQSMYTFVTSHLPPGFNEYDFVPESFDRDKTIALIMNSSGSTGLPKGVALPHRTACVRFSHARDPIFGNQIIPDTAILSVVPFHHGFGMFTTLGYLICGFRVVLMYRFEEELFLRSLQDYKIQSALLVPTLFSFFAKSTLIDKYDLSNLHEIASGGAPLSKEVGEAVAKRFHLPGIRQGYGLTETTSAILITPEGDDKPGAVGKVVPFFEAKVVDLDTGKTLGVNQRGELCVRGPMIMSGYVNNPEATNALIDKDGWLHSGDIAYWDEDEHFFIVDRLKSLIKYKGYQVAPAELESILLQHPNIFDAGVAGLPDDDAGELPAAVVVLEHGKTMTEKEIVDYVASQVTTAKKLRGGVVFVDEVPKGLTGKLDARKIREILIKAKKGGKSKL

[11] = viability of PTEN-deleted HCT116 cells – cell-based, HCT116 PTEN knockout, dose response (AID 1047); type: functional;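 also: HCT116 colon tumor cells with PTEN knocked out; cells exposed to compound for 60 hours before readout; potency for loss of cell viability measured by luminescence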
[12] = target: T5, Sentrin-specific protease 7 (Homo sapiens, UniProt Q9BQF6); test: inhibition of human SENP7 cleavage activity – biochemical, luminescence, SAR follow-up (AID 504497); type: functional
T5 sequence (Q9BQF6 whole entry): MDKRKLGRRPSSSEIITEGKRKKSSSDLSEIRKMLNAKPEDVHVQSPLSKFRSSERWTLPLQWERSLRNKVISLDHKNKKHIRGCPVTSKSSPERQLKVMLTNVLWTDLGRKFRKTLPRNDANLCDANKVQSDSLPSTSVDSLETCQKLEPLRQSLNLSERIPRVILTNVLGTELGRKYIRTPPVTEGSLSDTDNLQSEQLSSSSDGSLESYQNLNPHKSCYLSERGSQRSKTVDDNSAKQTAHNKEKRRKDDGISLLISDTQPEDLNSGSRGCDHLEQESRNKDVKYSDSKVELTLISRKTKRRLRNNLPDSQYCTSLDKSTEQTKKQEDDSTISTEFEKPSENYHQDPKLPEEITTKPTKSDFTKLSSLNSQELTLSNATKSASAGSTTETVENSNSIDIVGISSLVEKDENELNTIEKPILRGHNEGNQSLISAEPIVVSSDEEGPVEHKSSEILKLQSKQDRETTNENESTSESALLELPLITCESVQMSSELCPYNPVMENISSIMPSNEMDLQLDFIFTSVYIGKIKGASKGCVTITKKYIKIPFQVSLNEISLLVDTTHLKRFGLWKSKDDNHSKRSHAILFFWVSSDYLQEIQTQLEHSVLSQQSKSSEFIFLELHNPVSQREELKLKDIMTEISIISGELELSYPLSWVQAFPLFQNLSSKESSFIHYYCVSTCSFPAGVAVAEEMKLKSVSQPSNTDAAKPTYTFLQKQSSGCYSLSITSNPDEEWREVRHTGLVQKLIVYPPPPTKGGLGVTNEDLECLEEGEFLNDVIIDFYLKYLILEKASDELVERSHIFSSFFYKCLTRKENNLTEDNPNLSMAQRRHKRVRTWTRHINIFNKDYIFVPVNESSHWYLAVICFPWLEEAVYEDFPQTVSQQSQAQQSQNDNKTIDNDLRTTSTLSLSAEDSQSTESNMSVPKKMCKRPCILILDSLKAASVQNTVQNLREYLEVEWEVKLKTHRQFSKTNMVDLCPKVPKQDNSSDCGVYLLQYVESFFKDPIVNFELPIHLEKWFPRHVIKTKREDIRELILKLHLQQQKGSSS

[13] = target: T6, Sentrin-specific protease 6 (Homo sapiens, UniProt Q9GZR1); test: SAR Analysis of small molecule inhibitors of Sentrin-specific protease 6 (SENP6) using a Luminescent assay. [Related pubchem assays (depositor defined):AID2582, AID2599]; type: functional
T6 sequence (Q9GZR1 whole entry): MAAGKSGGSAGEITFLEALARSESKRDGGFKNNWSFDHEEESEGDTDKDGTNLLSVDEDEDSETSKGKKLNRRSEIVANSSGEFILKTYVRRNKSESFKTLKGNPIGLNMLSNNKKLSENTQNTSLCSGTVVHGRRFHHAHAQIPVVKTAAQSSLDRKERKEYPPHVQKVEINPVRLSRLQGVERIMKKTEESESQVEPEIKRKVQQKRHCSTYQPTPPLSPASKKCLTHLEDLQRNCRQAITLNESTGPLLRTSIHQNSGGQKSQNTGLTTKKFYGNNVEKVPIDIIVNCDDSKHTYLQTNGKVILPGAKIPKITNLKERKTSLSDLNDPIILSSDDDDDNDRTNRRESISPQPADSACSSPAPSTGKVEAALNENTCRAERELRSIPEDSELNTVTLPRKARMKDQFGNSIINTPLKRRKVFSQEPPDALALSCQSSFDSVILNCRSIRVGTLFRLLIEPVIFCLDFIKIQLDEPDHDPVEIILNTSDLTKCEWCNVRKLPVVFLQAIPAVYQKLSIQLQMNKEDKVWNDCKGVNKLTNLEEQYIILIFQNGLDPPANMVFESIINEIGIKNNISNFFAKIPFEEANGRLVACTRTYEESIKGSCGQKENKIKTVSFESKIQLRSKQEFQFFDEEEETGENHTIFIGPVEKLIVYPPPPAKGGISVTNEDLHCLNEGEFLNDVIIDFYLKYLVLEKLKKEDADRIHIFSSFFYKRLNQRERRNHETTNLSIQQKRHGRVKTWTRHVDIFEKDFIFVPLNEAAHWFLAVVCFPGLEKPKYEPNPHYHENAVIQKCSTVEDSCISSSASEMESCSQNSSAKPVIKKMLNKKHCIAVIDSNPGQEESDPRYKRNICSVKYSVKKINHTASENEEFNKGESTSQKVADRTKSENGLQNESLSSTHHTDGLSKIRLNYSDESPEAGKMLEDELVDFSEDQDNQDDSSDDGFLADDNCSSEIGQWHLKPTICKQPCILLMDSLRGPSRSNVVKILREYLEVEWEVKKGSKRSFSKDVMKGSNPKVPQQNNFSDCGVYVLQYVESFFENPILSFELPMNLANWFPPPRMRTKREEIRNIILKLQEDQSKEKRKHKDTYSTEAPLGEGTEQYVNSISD

Caspase-3 = target: T7, Caspase-3 (Homo sapiens, UniProt P42574); test: SAR Analysis of small molecule inhibitors of Sentrin-specific proteases (SENPs) using a Caspase-3 Selectivity assay. [Related pubchem assays (depositor defined):AID2540, AID2599, AID434973, AID489001]; type: functional
T7 sequence (P42574 whole entry): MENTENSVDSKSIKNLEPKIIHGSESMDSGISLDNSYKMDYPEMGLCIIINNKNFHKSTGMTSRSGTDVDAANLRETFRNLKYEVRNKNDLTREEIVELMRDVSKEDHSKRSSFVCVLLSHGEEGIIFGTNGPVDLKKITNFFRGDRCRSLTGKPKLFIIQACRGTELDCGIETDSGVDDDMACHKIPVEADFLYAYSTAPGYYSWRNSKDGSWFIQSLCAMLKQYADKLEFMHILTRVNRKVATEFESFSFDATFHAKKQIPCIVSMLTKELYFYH

[14] = target: T8, Sentrin-specific protease 8 (Homo sapiens, UniProt Q96LD8); test: inhibition of human SENP8 cleavage activity – biochemical, luminescence, SAR follow-up (AID 504501); type: functional
T8 sequence (Q96LD8 whole entry): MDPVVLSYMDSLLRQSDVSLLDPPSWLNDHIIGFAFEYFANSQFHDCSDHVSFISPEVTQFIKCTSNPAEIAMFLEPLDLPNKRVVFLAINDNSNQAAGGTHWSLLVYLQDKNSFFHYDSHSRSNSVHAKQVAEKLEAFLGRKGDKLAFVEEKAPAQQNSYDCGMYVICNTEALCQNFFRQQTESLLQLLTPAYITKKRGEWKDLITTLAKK

Vero = test: viability of Vero cells under compound – cytotoxicity control for flavivirus capping enzyme inhibitors (AID 588742); type: functional; settings: Chlorocebus sabaeus

Compound: COc1ccc2c(c1)c1nc3ccccc3nc1n2CCCN1C(=O)c2ccccc2C1=O
- EC50 [1]: 32.7 µM (active)
- EC50 [2]: 73.9 µM (inconclusive)
- EC50 [3]: > 99 µM (inactive)
- EC50 [4]: > 99 µM (inactive)

Compound: Cc1ccsc1/C=C/c1ccc2ccccc2n1
- IC50 [5]: > 100 µM (inactive)
- AC50 (HEK293): 15.8 µM (active)
- IC50 [6]: > 0.278 µM (active)
- IC50 (Prothrombin): 29.3 µM (active)
- IC50 (cells): > 67.5 µM (inactive)
- IC50 [7]: 23.4 µM (active)

Compound: CCC(C)c1ccc(NC(S)=NC2CCN(Cc3ccccc3)CC2)cc1 (stereo not given)
- EC50 (Melanocortin receptor 4): > 9.91 µM (active)
- AC50 (INS1): 6.84 µM (active)
- EC50 [8]: 14.2 µM (active)
- EC50 [9]: > 112 µM (not active)
- EC50 [10]: > 112 µM (not active)
- EC50 [11]: 13.5 µM (active)

Compound: CCc1cccc2c(C(=O)CN3C(=O)c4ccccc4C3=O)c[nH]c12
- IC50 [12]: > 99 µM (inactive)
- IC50 [13]: > 99 µM (inactive)
- IC50 (Caspase-3): > 99 µM (inactive)
- IC50 [14]: > 99 µM (inactive)

Compound: O=[N+]([O-])c1ccc(-c2nc(/C=C/c3ccc(F)cc3)no2)cc1
- IC50 [12]: > 99 µM (inactive)
- IC50 [13]: > 99 µM (inactive)
- IC50 (Caspase-3): > 99 µM (inactive)
- IC50 [14]: > 99 µM (inactive)

Compound: CN1CCN(C(c2ccccc2)c2ccc(Cl)cc2)CC1 (stereo not given) [CHLORCYCLIZINE HYDROCHLORIDE]
- CC50 (Vero): > 40 µM (active)
